These results are taken from ChEMBL document CHEMBL1201862, “PubChem BioAssay data set” (2004).

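Following 48 hours of exposure in 96-well plates, responses at five concentrations were used to interpolate endpoints linearly. At the GI50, growth is halved.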 Active and inactive are the calls of the source. No stated cut-off is given here; in the data, active = GI50 up to about 1.1 µM and inactive = higher.

Among the test systems are SNB-75; SW-620; TK-10; MDA-N; IGROV-1; OVCAR-4; SR; EKVX; U-251; SF-268; A498; BT-549; OVCAR-3; HL-60; HCT-116; OVCAR-8; ACHN; NCI-H226; RXF 393.
Holding throughout (assay): NCI anticancer screen, dose series, 48 h

In the case of `Cc1c(-c2ccc(O)cc2)n(CCCCCCNCCOC(=O)NCCCc2ccc(N(CCCl)CCCl)cc2)c2ccc(O)cc12`, the GI50 is 1.98 µM (inactive) with SNB-75; 2.15 µM (inactive) with SW-620; 2.24 µM (inactive) in the assay on TK-10; 1.73 µM (inactive) in the assay with MDA-N; 2.07 µM (inactive) with IGROV-1; 1.9 µM (inactive) in the assay with OVCAR-4. In addition, the GI50 in the assay with SR was 0.809 µM (active); in the assay with EKVX, 3.05 µM (inactive); in the assay with U-251, 3.07 µM (inactive); in the assay with SF-268, 1.52 µM (inactive); in the assay with A498 it was 14.9 µM (inactive); in the assay on BT-549, 12.4 µM (inactive). The GI50 in the assay on OVCAR-3 was 2.16 µM (inactive); in the assay with HL-60, 1.44 µM (inactive); in the assay on HCT-116 it was 1.52 µM (inactive); in the assay on OVCAR-8, 1.38 µM (inactive); with ACHN, 3.71 µM (inactive).

As to `C(=C\c1cc(-c2ccc3ccccc3n2)nc2ccc3ccccc3c12)/c1ccc2ccccc2n1`, the GI50 in the assay with SNB-75 is 24 µM (inactive); in the assay on NCI-H226 it was > 100 µM (inactive); with SW-620, > 100 µM (inactive); with TK-10, > 100 µM (inactive); in the assay on MDA-N, > 100 µM (inactive); with IGROV-1 it was > 100 µM (inactive). For the same compound, the GI50 is > 100 µM (inactive) in the assay on RXF 393; > 100 µM (inactive) with OVCAR-4; > 100 µM (inactive) in the assay with SR; > 100 µM (inactive) in the assay with EKVX; > 100 µM (inactive) in the assay on U-251; 74.1 µM (inactive) with SF-268. Further, the GI50 with A498, in the assay with BT-549, in the assay on OVCAR-3, in the assay on HL-60, in the assay on HCT-116 and in the assay on OVCAR-8 was > 100 µM (inactive) each time. Moreover, the GI50 with ACHN was > 100 µM (inactive).

`c1cnn(C23C4C5C6C4C2C6C53)c1` (stereo not given): the GI50 is > 100 µM (inactive) with SNB-75; 60.4 µM (inactive) in the assay on NCI-H226; > 100 µM (inactive) with SW-620; > 100 µM (inactive) in the assay with TK-10; > 100 µM (inactive) in the assay with MDA-N; > 100 µM (inactive) in the assay on IGROV-1. The GI50 is > 100 µM (inactive) with SR; > 100 µM (inactive) in the assay with EKVX; > 100 µM (inactive) in the assay with U-251; > 100 µM (inactive) with SF-268; > 100 µM (inactive) in the assay with A498; 71.6 µM (inactive) with BT-549. For the same compound, the GI50 with HL-60, with HCT-116, in the assay with OVCAR-8 and with ACHN was > 100 µM (inactive) throughout.

As for `CC(=O)NC1C(OC(C)C(=O)NC(C(=O)NC(CCC(=O)NCCCNC2c3ccccc3Nc3cccc([N+](=O)[O-])c32)C(N)=O)C(C)C)C(O)C(CO)OC1(C)OCc1ccccc1` (stereo not given), the GI50 in the assay on SNB-75 was 1.91 µM (inactive); in the assay with NCI-H226, 1.13 µM (inactive); in the assay with SW-620 it was 0.291 µM (active); in the assay on TK-10 it was 0.133 µM (active); in the assay with MDA-N, 0.634 µM (active); in the assay on IGROV-1, 1.6 µM (inactive). Also, the GI50 with RXF 393 is 0.36 µM (active); in the assay with OVCAR-4, 1.78 µM (inactive); in the assay on SR it was 0.215 µM (active); in the assay with EKVX it was 1.54 µM (inactive); in the assay with U-251 it was 1.39 µM (inactive); with SF-268 it was 0.998 µM (active). The GI50 in the assay on A498 is 1.93 µM (inactive); in the assay with BT-549 it was 1.63 µM (inactive); with OVCAR-3, 0.946 µM (active); with HCT-116, 0.256 µM (active); in the assay on OVCAR-8, 1.1 µM (active); in the assay with ACHN it was 0.621 µM (active).
